Results reported in patent publication US8754115B2, “Fungicidal pyrazoles” (E I du Pont de Nemours and Company, priority 2010, dated 2014).
Marks after values point to notes of the source that are not given here.

Assays:
Type in all cases: in vivo
[1] = tested on: Botrytis cinerea; assay: Test A: preventive spray on tomato seedlings, visual disease rating (tomato Botrytis)
In short: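 Preventive test: Botrytis cinerea spores applied one day after run-off spraying at 200 ppm (≈800 g/ha), or 40 ppm where asterisked. Incubation 48 h at 20 °C in saturated air, then 3 days at 24 °C; disease scored visually from 0 (no control) to 100 (complete control) versus untreated.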

[2] = tested on: Alternaria solani; assay: Test B: preventive spray on tomato seedlings, visual disease rating (tomato early blight)
In short: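 Compounds were suspended at 200 ppm (asterisked values at 40 ppm) in acetone/water with surfactant and sprayed to run-off on tomato seedlings, 200 ppm being equivalent to 800 g/ha. A. solani spores were inoculated the next day, with 48 h at 27 °C in saturated air, then 5 days at 20 °C. Disease control was rated visually, 0–100% relative to controls.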

[3] = tested on: Blumeria graminis f. sp. tritici; assay: Test F: preventive spray on wheat seedlings, visual disease rating (wheat powdery mildew)
In short: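 Visual ratings (0–100% control relative to controls) taken 8 days after spore-dust inoculation at 20° C. Inoculation followed one day after a protective run-off spray of 200 ppm suspension, equal to 800 g/ha, or 40 ppm where flagged, made in acetone/water with 250 ppm surfactant.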

[4] = tested on: Septoria tritici; assay: Test D: preventive spray on wheat seedlings, visual disease rating (wheat leaf blotch)
In short: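 Protection was scored visually on a 0–100% disease-control scale versus controls, 19 days after plants were moved to 20 °C following 48 h of 24 °C saturated humidity. Spore inoculation with S. tritici took place one day after a preventive run-off spray, usually at 200 ppm (800 g/ha) and at 40 ppm where asterisked.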

[5] = tested on: Puccinia recondite f. sp. tritici; assay: Test E2: preventive spray on wheat seedlings, visual disease rating (wheat leaf rust)
In short: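 Wheat seedlings were inoculated with leaf rust spores one day after a run-off spray of compound at 200 ppm (asterisk: 40 ppm) in 50/50 acetone/water with 250 ppm Trem 014. Incubation: 24 h saturated humidity, 20 °C; then 7 days growth chamber, 20 °C. Disease control scored visually, 0–100% relative to controls.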

[6] = tested on: Septoria nodorum; assay: Test C: preventive spray on wheat seedlings, visual disease rating (Septoria glume blotch)
In short: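 Wheat seedlings were sprayed to run-off with 200 ppm suspension (40 ppm where marked; 200 ppm ≈ 800 g/ha) in acetone/water with 250 ppm Trem 014, then inoculated next day with Septoria nodorum spores. Incubation was 48 h saturated at 24 °C, then 6 days at 20 °C; visual rating 0–100% disease control versus controls.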

[7] = tested on: Puccinia recondite f. sp. tritici; assay: Test E1: curative spray on wheat seedlings after inoculation, visual disease rating (wheat leaf rust)
In short: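 Seedlings inoculated with rust spores, held 24 h in saturated atmosphere at 20 °C, then 2 days at 20 °C before curative spray to run-off with test suspension (200 ppm ≈ 800 g/ha, or 40 ppm where marked) in acetone/water with surfactant. Visual disease control rating (0–100) after 6 further days at 20 °C.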

[8] = no asterisk: standard test suspension, not 40 ppm, 100 = 100% disease control, 0 = none
[9] = no asterisk: standard test suspension, not 40 ppm
[10] = asterisk: 40 ppm test suspension

Row | Compound | Test A rating (% disease control) [1, 8] [%] | Test B rating (% disease control) [2, 9] [%] | Test F rating (% disease control) [3, 9] [%] | Test D rating (% disease control) [4, 9] [%] | Test E2 rating (% disease control) [5, 9] [%] | Test C rating (% disease control) [6, 9] [%] | Test E1 rating (% disease control) [7, 9] [%] | Test A rating (% disease control) [1, 10] | Test B rating (% disease control) [2, 10] | Test F rating (% disease control) [3, 10] | Test D rating (% disease control) [4, 10] | Test E2 rating (% disease control) [5, 10] | Test C rating (% disease control) [6, 10] | Test E1 rating (% disease control) [7, 10]
1 | COc1ccc(-c2c(Oc3ccc(F)cc3Cl)c(C)nn2C)c(Cl)c1 [compound 31] | 100 | 0 | 96 | 100 | 92 | 0 | 0 |  |  |  |  |  |  | 
2 | Cc1nn(C)c(-c2c(F)cccc2F)c1S(=O)(=O)c1ccc(Cl)cc1 [compound 62] | 0 | 0 | 94 | 0 | 28 | 0 | 0 |  |  |  |  |  |  | 
3 | Cc1nn(C)c(-c2c(F)cc(F)cc2F)c1C(=O)c1ccc(F)cc1Cl [compound 59] | 66 | 0 | 100 | 58 | 80 | 0 | 0 |  |  |  |  |  |  | 
4 | Cc1nn(C)c(-c2c(F)cccc2F)c1C(F)c1ccc(F)cc1Cl (stereo not drawn) [Compound 54] | 100 | 100 | 99 | 100 | 99 | 99 | 100 |  |  |  |  |  |  | 
5 | Cc1nn(C)c(-c2c(F)cccc2Cl)c1C(=O)c1ccc(F)cc1F [compound 28] | 56 | 0 | 79 | 0 | 8 | 0 | 0 |  |  |  |  |  |  | 
6 | Cc1nn(C)c(-c2c(F)cccc2F)c1C(O)c1c(F)cc(F)cc1F (stereo not drawn) [compound 15] | 100 | 100 | 100 | 100 | 100 | 86 | 68 |  |  |  |  |  |  | 
7 | Cc1nn(C)c(-c2ccc(F)cc2Cl)c1C(O)c1ccc(F)cc1F (stereo not drawn) [compound 17] | 100 | 94 | 100 | 100 | 100 | 60 | 83 |  |  |  |  |  |  | 
8 | Cc1nn(C)c(-c2ccc(F)cc2Cl)c1Nc1ccc(Cl)cc1F [Compound 45] | 100 | 0 | 99 | 100 | 97 | 0 | 77 | 98* % | 33* % | 100* % | 100* % | 95* % | 0* % | 0* %
9 | COc1cc(F)c(C(O)c2c(C)nn(C)c2-c2c(F)cccc2Cl)c(F)c1 (stereo not drawn) [compound 39] | 95 | 58 | 99 | 100 | 100 | 60 | 97 |  |  |  |  |  |  | 
10 | Cc1nn(C)c(-c2ccc(F)cc2Br)c1C(O)c1c(F)cc(F)cc1F (stereo not drawn) [compound 82] | 99 | 100 | 100 | 99 | 100 | 92 | 27 |  |  |  |  |  |  | 
11 | Cc1nn(C)c(-c2c(F)cccc2F)c1C(O)c1ccc(C#N)cc1F (stereo not drawn) [compound 22] | 88 | 84 | 0 | 100 | 88 | 0 | 17 |  |  |  |  |  |  | 
12 | COc1cc(F)c(C(O)c2c(C)nn(C)c2-c2c(F)cccc2F)c(F)c1 (stereo not drawn) [compound 16] | 100 | 99 | 93 | 100 | 100 | 0 | 54 |  |  |  |  |  |  | 
13 | Cc1nn(C)c(-c2c(F)cc(F)cc2F)c1C(O)c1ccc(F)cc1F (stereo not drawn) [compound 66] | 100 | 100 | 99 | 100 | 100 | 95 | 55 |  |  |  |  |  |  | 
14 | 3-bromo-5-(2-chloro-4-fluorophenyl)-α-(2,4-difluorophenyl)-1-methyl-1H-pyrazole-4-methanol [Compound 30] | 100 | 0 | 99 | 100 | 100 | 0 | 100 |  |  |  |  |  |  | 
15 | Cc1nn(C)c(-c2ccc(F)cc2Br)c1C(=O)c1ccc(F)cc1Cl [compound 83] |  |  |  |  |  |  |  | 55* % | 0* % | 99* % | 25* % | 74* % | 0* % | 0* %
16 | Cc1nn(C)c(-c2ccc(F)cc2F)c1Oc1ccc(C#N)cc1Cl [compound 35] | 98 | 0 | 0 | 100 | 73 | 0 | 9 |  |  |  |  |  |  | 
17 | Cc1nn(C)c(-c2ccc(C#N)cc2Cl)c1Oc1ccc(F)cc1Cl [compound 36] | 96 | 0 | 100 | 100 | 100 | 0 | 18 |  |  |  |  |  |  | 
